Measurements published in patent US12441730B2, “PRMT5 inhibitors” (Merck Sharp & Dohme LLC, priority 2019, dated 2025).
pEC50: −log10 of the molar value. Where two headings read alike, the source gives them in different places.

Experiments:
[1] = test system: symmetric dimethylation of arginine (SDMA) of PRMT5 substrates in MCF-7 cells; assay: PRMT5 Cell Target Engagement (TE) Assay; type: cell-based; details: 3 days treatment, SDMA high content imaging
Summary of the method: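 MCF-7 cells treated 3 days at 37 °C with a ten-point 1:3 titration from 10000 nM. Fixed cells immunostained with anti-SDMA and Alexa488 secondary; nuclear fluorescence quantified by high-content imaging versus DMSO wells, with IC50 from a 4-parameter fit.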

[2] = target: T1, Full-length (FL)-PRMT5-MEP50 enzyme complex (Homo sapiens, UniProt O14744); assay: PRMT5-MEP50 Enzyme Methylation Assay (Version A); type: biochemical
T1 construct: Full-length (FL)-PRMT5-MEP50 enzyme complex (recombinant proteins from baculovirus-transfected Sf21 cells: FL-PRMT5; MW=73837 kDa and FL-MEP50; MW=38614); made in house; host or cells: baculovirus-transfected Sf21 cells
Summary of the method: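 Compound was pre-incubated with enzyme for 60 min, then reacted 150 min at 37° C. at final 1.0 nM PRMT5-MEP50, 15 μM SAM and 75 nM biotinylated H4R3(Me1) peptide, in 50 mM Bicine pH 8.0 with 1% DMSO. SAMDI mass-spectrometric readout of Me1→Me2 conversion. EC50 from 4- or 7-parameter regression.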

[3] = second value of 7 parameter biphasic fit, read-out: Enzyme Methylation Assay Version A (EC50 2)
[4] = single EC50 = 4 parameter single site sigmoidal fit, EC50 1 = first value of 7 parameter biphasic fit, read-out: Enzyme Methylation Assay Version A (EC50 or EC50 1)

T1 sequence (O14744 whole entry): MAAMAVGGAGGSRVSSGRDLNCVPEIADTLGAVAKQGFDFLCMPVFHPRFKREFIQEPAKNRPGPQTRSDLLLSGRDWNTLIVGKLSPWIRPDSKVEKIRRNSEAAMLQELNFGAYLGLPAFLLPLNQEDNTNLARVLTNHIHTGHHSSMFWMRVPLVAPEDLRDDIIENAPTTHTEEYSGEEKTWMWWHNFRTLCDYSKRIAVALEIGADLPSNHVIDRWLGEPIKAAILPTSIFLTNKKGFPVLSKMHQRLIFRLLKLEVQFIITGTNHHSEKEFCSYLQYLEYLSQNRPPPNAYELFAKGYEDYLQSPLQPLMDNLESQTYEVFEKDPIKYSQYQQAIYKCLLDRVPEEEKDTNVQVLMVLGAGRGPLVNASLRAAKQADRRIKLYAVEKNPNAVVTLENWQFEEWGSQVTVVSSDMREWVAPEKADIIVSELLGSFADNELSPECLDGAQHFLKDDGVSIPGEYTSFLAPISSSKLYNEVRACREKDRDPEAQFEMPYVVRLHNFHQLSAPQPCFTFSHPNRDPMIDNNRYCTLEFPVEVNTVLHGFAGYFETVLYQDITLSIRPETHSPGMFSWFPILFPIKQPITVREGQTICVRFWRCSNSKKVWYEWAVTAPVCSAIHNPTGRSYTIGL
T1 sequence (Q9BQA1 whole entry partner): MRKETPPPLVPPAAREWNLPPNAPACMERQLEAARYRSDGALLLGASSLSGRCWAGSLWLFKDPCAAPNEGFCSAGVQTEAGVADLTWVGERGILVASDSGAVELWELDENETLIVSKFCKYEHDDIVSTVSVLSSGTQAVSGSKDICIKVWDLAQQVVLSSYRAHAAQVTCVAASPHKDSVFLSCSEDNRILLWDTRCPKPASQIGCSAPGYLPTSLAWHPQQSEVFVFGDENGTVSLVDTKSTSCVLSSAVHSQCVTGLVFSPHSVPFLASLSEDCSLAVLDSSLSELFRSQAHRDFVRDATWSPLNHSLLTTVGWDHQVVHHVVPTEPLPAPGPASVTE

Structure (SMILES)	pEC50 ([1]; Homo sapiens, MCF7, 72 h)	pEC50 [2, 3]	pEC50 [2, 4]	pEC50 [1]
O=C(c1cn2ncc(Br)cc2n1)N1CC[C@]2(Cc3ccccc3CN2)[C@H](O)C1 [Example 71, (7-bromoimidazo[1,2-b]pyridazin-2-yl)[(3R,3′R)-3′-hydroxy-1,4-dihydro-1′H,2H-spiro[isoquinoline-3,4′-piperidin]-1′-yl]methanone]	5.82	5.08	6.87	–
Cc1nn(C)c2ncc(C(=O)N3CC[C@]4(Cc5ccccc5CN4)[C@H](O)C3)c(Cl)c12 [Example 180, (4-chloro-1,3-dimethyl-1H-pyrazolo[3,4-b]pyridin-5-yl)((3R,3′R)-3′-hydroxy-1,4-dihydro-2H-spiro[isoquinoline-3,4′-piperidin]-1′-yl)methanone]	5.88	4.28	7.29	–
CC(C)N1CCNc2cc(C(=O)N3CC[C@]4(Cc5ccccc5CN4)[C@H](O)C3)ccc2C1=O [Example 27, 8-((3R,3’R)-3′-hydroxy-1,4-dihydro-1′H,2H-spiro[isoquinoline-3,4′-piperidine]-1′-carbonyl)-4-(propan-2-yl)-1,2,3,4-tetrahydro-5H-1,4-benzodiazepin-5-one]	7.43	5.47	8.44	–
O=C(c1cn2ccc(Cl)c(I)c2n1)N1CC[C@]2(Cc3ccccc3CN2)[C@H](O)C1 [Example 216, (7-chloro-8-iodoimidazo[1,2-a]pyridin-2-yl)[(3R,3′R)-3′-hydroxy-1,4-dihydro-1′H,2H-spiro[isoquinoline-3,4′-piperidin]-1′-yl]methanone]	6.15	5.59	7.58	–
CC1CC1c1cnc2nc(C(=O)N3CC[C@]4(Cc5ccccc5CN4)[C@H](O)C3)cn2c1 (single isomer, unassigned) [Example 76]	–	7.14	9.01	8.40
COc1nc(Br)cn2cc(C(=O)N3CC[C@]4(Cc5ccccc5CN4)[C@H](O)C3)nc12 [Example 8]	8.44	6.40	8.81	–
Cc1nc(C(F)(F)F)cn2cc(C(=O)N3CC[C@]4(Cc5ccccc5CN4)[C@H](O)C3)nc12 [Example 72, [(3R,3′R)-3′-hydroxy-1,4-dihydro-1′H,2H-spiro[isoquinoline-3,4′-piperidin]-1′-yl][8-methyl-6-(trifluoromethyl)imidazo[1,2-a]pyrazin-2-yl]methanone]	7.11	6.47	8.41	–
Cc1cn2cc(C(=O)N3CC[C@]4(Cc5ccccc5CN4)[C@H](O)C3)nc2s1 [Example 223, [(3R,3′R)-3′-hydroxy-1,4-dihydro-1′H,2H-spiro[isoquinoline-3,4′-piperidin]-1′-yl](2-methylimidazo[2,1-b][1,3]thiazol-6-yl)methanone]	6.35	6.20	7.66	–
O=C(c1c[nH]c2ncncc12)N1CC[C@]2(Cc3ccccc3CN2)[C@H](O)C1 [Example 190, [(3R,3′R)-3′-hydroxy-1,4-dihydro-1′H,2H-spiro[isoquinoline-3,4′-piperidin]-1′-yl](1H-pyrrolo[2,3-d]pyrimidin-5-yl)methanone]	≤ 5.00	–	6.46	–
O=C(c1nn2cc(Br)cnc2c1Cl)N1CC[C@]2(Cc3ccccc3CN2)[C@H](O)C1 [Example 58, (6-bromo-3-chloropyrazolo[1,5-a]pyrimidin-2-yl)[(3R,3′R)-3′-hydroxy-1,4-dihydro-1′H,2H-spiro[isoquinoline-3,4′-piperidin]-1′-yl]methanone]	8.00	6.51	9.15	–
O=C(c1cn2cc(Br)c(C3CC3)nc2n1)N1CC[C@]2(Cc3ccccc3CN2)[C@H](O)C1 [Example 135, (6-bromo-7-cyclopropylimidazo[1,2-a]pyrimidin-2-yl)[(3R,3′R)-3′-hydroxy-1,4-dihydro-1′H,2H-spiro[isoquinoline-3,4′-piperidin]-1′-yl]methanone]	8.16	–	7.97	–
Cc1ccc2c(c1)C[C@]1(CCN(C(=O)c3cn4cc(C5CC5)cnc4n3)C[C@H]1O)NC2 (single isomer, unassigned) [Example 227]	7.57	–	8.07	–
